What was measured:
[1] = system: S. coelicolor M145 and nagE1, nagE2 mutants; assay: Development on R2YE agar plates with or without N-acetylglucosamine; assay type: cell-based, Streptomyces coelicolor; details: N-acetylglucosamine 1% w/v
Procedure: FIG. 18. N-acetylglucosamine is transported by NagE2 (SCO2907). Mutants deleted for the transport genes nagE1/(SCO2906), nagE2 (SCO2907), or both, were plated on R2YE agar plates with or without N-acetylglucosamine (1% w/v). Other strains on the agar plates are: S.coelicolor M145 (parent of all mutants), the dasR mutant BAP29 and the pts mutants ptsH (BAP1), crr (BAP2), and ptsI (BAP3). For phenotypes of the pts mutants see also FIG. 3A). […] This proves that indeed nagE2 is the transporter of N-caetylglucosamine and is essential for import of the inducer molecule for the DasR control system.
Two possible transporters for N-acetylglucosamine were identified on the S. coelicolor genome, namely the adjacent genes nagE1 (SCO2906) and nagE2 (SCO2907). Mutants were created for both genes by replacing the entire gene by the apramycin resistance cassette aacC4. A double mutant was also produced (BAP6). The method used to do this was by using pWHM3, as described previously (Nothaft et al., 2003). Mutants deleted for the transport genes nagE1 (BAP4), nagE2 (BAP5), or both (BAP6), were plated on R2YE agar plates with or without N-acetylglucosamine (1% w/v). Other strains on the agar plates are: S.coelicolor M145 (parent of all mutants), the dasR mutant BAP29 and the pts mutants ptsH (BAP1), crr (BAP2), and ptsI (BAP3). For phenotypes of the pts mutants see also FIG. 3A). […] This proves that indeed nagE2 is the transporter of N-acetylglucosamine and is essential for import of the inducer molecule for the DasR control system.

[2] = system: S. coelicolor M145, M510, M511, M512; assay: Pigmented antibiotic (actinorhodin, undecylprodigiosin) production on MM agar plates with or without GlcNAc; assay type: cell-based, Streptomyces coelicolor
Text: FIG. 2. Effect of dasR on development and antibiotic production. (A) Antibiotic production by S. coelicolor M145 and its dasR mutant BAP29 on minimal medium agar plates with or without GlcNAc. […] The latter is in line with our discovery that (i) ActV4A is enhanced in the mutant (FIG. 4) and (ii) the identification of a DasR-bound dre upstream of the pathway-specific activator genes actII-ORF4 for actinorhodin production and redZ for undecylprodigiosin production. Unexpectedly, the dasR mutant grown on minimal media with GlcNAc presents the expression of a yet unchartacterized green pigment. (B) Overexpression of DasR causes developmental arrest. Left, S. coelicolor M145 with control plasmid pUWL-KS; right, the same strain with a plasmid over-expressing dasR (grown for 4 days at 30° C.); note the almost complete lack of aerial hyphae (white) in the strain over-expressing DasR; (C) Scanning electron micrographs of aerial hyphae and spores of S. coelicolor M145 and the dasR mutant BAP29. […] Bars represent 5 μm. (D) Transmission electron micrographs of spores of M145 (left) and BAP29 (right). Arrows indicate the voids between the cell wall and the membrane. FD, full detachment; ID, incomplete detachment.
E. coli DH5α, and BL21(DE3) were used for subcloning and DasR overexpression experiments. S. coelicolor M145, M510 (M145 ΔredD), M511 (M145 ΔactII-IV) and M512 (M145 ΔactII-IV ΔredD) (Floriano and Bibb, 1996) and Streptomzyces lividans 1326 were all obtained from the John Innes Centre strain collection, Streptomyces avermitilis NRRL 8165 (MA-4680), Streptonzyces hygroscopicus ATCC27438, Streptomyces limosus ATCC 19778, Streptomyces rinzosus ATCC 10970, Streptonzyces roseosporus ATCC 31568 and Streptonzyces venezuelae ATCC15439 were obtained from the ATCC strain collection and Streptomyces acrinzycini DSM 40540, Streptomyces cinnanzonensis DSM 40467, Streptomyces clavuligerus NRRL 3585, Streptomyces collinus DSM 40733 and Streptomyces griseus NRRL B2682 from the DSMZ strain collection. The dasR mutant BAP29 (ΔdasR::accC4) was created by replacing the coding region of the gene by the apramycin resistance gene cassette, using plasmid pWHM3, according to a routine procedure (Nothaft et al., 2003). The same strategy was used to create the knock-out mutants for ptsH (BAP1), crr (BAP2), ptsI (BAP3), nagE1 (BAP4), nagE2 (BAP5), and nagE1/E2 (BAP6). BAP1-3 were published previously (Nothaft et al., 2003). S. coelicolor strains were grown at 28° C. using tryptic soy broth without dextrose as complex medium (TSB, Difco) or minimal medium (van Wezel et al., 2005). E. coli cultures were grown in Luria-Bertani broth (LB) at 37° C. Phenotypic characterization of mutants was done on minimal medium agar plates with various carbon sources as indicated in the text (Kieser et al., 2000). Quantification of Act and Red was performed as described previously (Martinez-Costa et al., 1996).
Arguing from the regulatory pathway deduced from the newly extended characterization of the DasR regulon (FIG. 22), we anticipated that DasR-dependent transport and phosphorylation of GlcNAc via the PTS could be a decisive signal to trigger actinorhodin and undecylprodigiosin biosynthesis in S. coelicolor. This hypothesis was tested by plating S. coelicolor M510 (ΔredD), M511 (ΔactII-ORF4) and M512 (ΔredD, ΔactII-ORF4) on MM agar plates with or without GlcNAc. […]

SMILES: CC(=O)N[C@H]1C(O)O[C@H](CO)[C@@H](O)[C@@H]1O (stereo partly drawn) [N-acetylglucosamine]
- effect on development ([1]; nagE1/nagE2 double mutant (BAP6), R2YE agar): no effect on development
- effect on development ([1]; nagE1 mutant (BAP4), R2YE agar): arrested in the vegetative state
- effect on development ([1]; nagE2 mutant (BAP5), R2YE agar): no effect on development
- effect on development ([1]; parental strain S. coelicolor M145, R2YE agar): arrested in the vegetative state
- induction of the pigmented antibiotics actinorhodin and undecylprodigiosin ([2]; S. coelicolor M145, minimal medium agar plates with or without GlcNAc): required for induction
- production of Act (actinorhodin) ([2]; S. coelicolor M510 (ΔredD), MM agar, GlcNAc 10 mM, five days): induced
- production of Red (undecylprodigiosin) ([2]; S. coelicolor M511 (ΔactII-ORF4), MM agar, GlcNAc 10 mM, five days): induced
- pigmented antibiotic production ([2]; S. coelicolor M512 (ΔredD, ΔactII-ORF4), MM agar, GlcNAc 10 mM): No pigmented antibiotic was observed
- concentration at which the 'GlcNAc effect' was observed ([2]; effect of GlcNAc on antibiotic production and development): > 5 mM
